This is an account of results in patent US12077503B2, “Substituted cyclic amides and their use as herbicides” (FMC CORPORATION, priority 2015, dated 2024).

Like-named read-outs stand apart in the source and are kept apart here.

Assay in all cases: Test A postemergence
Holding throughout (type): in vivo

In experiment [1] the test system is blackgrass (Alopecurus myosuroides). To be noted: Alopecurus myosuroides, post-emergence, 240 h; for pest or weed control at 125 g/ha: 125 g ai/ha; for pest or weed control at 500 g/ha: 500 g ai/ha. Put shortly: (§1)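 Visual injury scores from 0, no effect, to 100, complete control, were assigned versus untreated controls roughly 10 d after treatment in the greenhouse. Test chemicals, formulated with surfactant in a non-phytotoxic solvent, were applied to planted seeds as a preemergence soil spray or postemergence to one- to two-leaf plants 2 to 10 cm tall, in loam–sand soil.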

Experiment [2] deals with giant foxtail (Setaria faberii). The following applies: Setaria faberi, post-emergence, 240 h; for pest or weed control at 125 g/ha: 125 g ai/ha; for pest or weed control at 500 g/ha: 500 g ai/ha. Put shortly:
as §1

In experiment [3] the test system is wheat (Triticum aestivum). To be noted: Triticum aestivum, post-emergence, 240 h; for plant injury at 125 g/ha: 125 g ai/ha; for plant injury at 500 g/ha: 500 g ai/ha. Put shortly:
as §1

Experiment [4] deals with Kochia (Kochia scoparia). The following applies: Bassia scoparia, post-emergence, 240 h; for pest or weed control at 125 g/ha: 125 g ai/ha; for pest or weed control at 500 g/ha: 500 g ai/ha. Summed up: as §1
Experiment [5] relates to ryegrass, Italian (Italian ryegrass, Lolium multiflorum). To be noted: Lolium multiflorum, post-emergence, 240 h; for pest or weed control at 125 g/ha: 125 g ai/ha; for pest or weed control at 500 g/ha: 500 g ai/ha. Put shortly: as §1
Experiment [6] has as its system pigweed (Amaranthus retroflexus). To be noted: Amaranthus retroflexus, post-emergence, 240 h; for pest or weed control at 125 g/ha: 125 g ai/ha; for pest or weed control at 500 g/ha: 500 g ai/ha. Put shortly:
as §1

Setting [7] is: postemergence, visual injury on 0 to 100 scale (0 no effect, 100 complete control), approx. 10 d, read-out: Blackgrass plant response rating.
The mark [8] stands for this setting: postemergence, 0 to 100 scale, 0 is no effect, 100 is complete control, read-out: Blackgrass plant response rating.
Where [9] appears, read: postemergence, visual injury on 0 to 100 scale (0 no effect, 100 complete control), approx. 10 d, read-out: Foxtail, Giant plant response rating.
Setting [10] is: postemergence, 0 to 100 scale, 0 is no effect, 100 is complete control, read-out: Foxtail, Giant plant response rating.
Where [11] appears, read: postemergence, visual injury on 0 to 100 scale (0 no effect, 100 complete control), approx. 10 d, read-out: Wheat plant response rating.
Where [12] appears, read: postemergence, 0 to 100 scale, 0 is no effect, 100 is complete control, read-out: Wheat plant response rating.
The mark [13] stands for this setting: postemergence, visual injury on 0 to 100 scale (0 no effect, 100 complete control), approx. 10 d, read-out: Kochia plant response rating.
Setting [14] is: postemergence, 0 to 100 scale, 0 is no effect, 100 is complete control, read-out: Kochia plant response rating.
Setting [15] is: postemergence, visual injury on 0 to 100 scale (0 no effect, 100 complete control), approx. 10 d, read-out: Ryegrass, Italian plant response rating.
The mark [16] stands for this setting: postemergence, 0 to 100 scale, 0 is no effect, 100 is complete control, read-out: Ryegrass, Italian plant response rating.
[17] abbreviates: postemergence, visual injury on 0 to 100 scale (0 no effect, 100 complete control), approx. 10 d, read-out: Pigweed plant response rating.
Where [18] appears, read: postemergence, 0 to 100 scale, 0 is no effect, 100 is complete control, read-out: Pigweed plant response rating.
[19] abbreviates: Postemergence, visual injury after approximately 10 d, 0 to 100 scale where 0 is no effect and 100 is complete control, read-out: Plant response rating, Blackgrass.
[20] abbreviates: postemergence, visual injury, 0 to 100 scale (0 no effect, 100 complete control), approx. 10 d, read-out: Plant response rating, Blackgrass.
[21] abbreviates: Postemergence, visual injury after approximately 10 d, 0 to 100 scale where 0 is no effect and 100 is complete control, read-out: Plant response rating, Foxtail, Giant.
Where [22] appears, read: postemergence, visual injury, 0 to 100 scale (0 no effect, 100 complete control), approx. 10 d, read-out: Plant response rating, Foxtail, Giant.
Where [23] appears, read: Postemergence, visual injury after approximately 10 d, 0 to 100 scale where 0 is no effect and 100 is complete control, read-out: Plant response rating, Wheat.
Where [24] appears, read: Postemergence, visual injury after approximately 10 d, 0 to 100 scale where 0 is no effect and 100 is complete control, read-out: Plant response rating, Kochia.
Where [25] appears, read: postemergence, visual injury, 0 to 100 scale (0 no effect, 100 complete control), approx. 10 d, read-out: Plant response rating, Kochia.
Setting [26] is: Postemergence, visual injury after approximately 10 d, 0 to 100 scale where 0 is no effect and 100 is complete control, read-out: Plant response rating, Ryegrass, Italian.
Where [27] appears, read: Postemergence, visual injury after approximately 10 d, 0 to 100 scale where 0 is no effect and 100 is complete control, read-out: Plant response rating, Pigweed.

Consider `O=C1NC[C@H](c2ccc(F)c(OC(F)(F)C(F)F)c2)[C@H]1C(=O)Nc1cccc(F)c1F` [Compound 1131], for which the pest or weed control at 125 g/ha was 40% in experiment [1] (setting [7]); 80% in experiment [2] (setting [9]); 60% in experiment [4] (setting [13]); 0% in experiment [5] (setting [15]); 50% in experiment [6] (setting [17]). The pest or weed control at 500 g/ha in experiment [1] (setting [8]) came out at 60%; in experiment [2] (setting [10]), 90%; in experiment [4] (setting [14]) it was 70%; in experiment [5] (setting [16]), 50%; in experiment [6] (setting [18]), 80%. Moreover, in experiment [3] (setting [11]), the plant injury at 125 g/ha amounted to 50%. In addition, in experiment [3] (setting [12]), the plant injury at 500 g/ha was found to be 70%.
Regarding `CN1C[C@H](c2ccc(F)c(F)c2)[C@@H](C(=S)Nc2ccccc2F)C1=O` (racemic) [Compound 1153], the pest or weed control at 125 g/ha in experiment [1] (setting [7]) was determined as 0%; in experiment [2] (setting [9]), 60%; in experiment [4] (setting [13]), 0%; in experiment [5] (postemergence, visual injury vs untreated controls after approx. 10 d, 0 = no effect, 100 = complete control, read-out: Ryegrass, Italian plant response rating (0 to 100 scale)), 0%; in experiment [6] (postemergence, visual injury vs untreated controls after approx. 10 d, 0 = no effect, 100 = complete control, read-out: Pigweed plant response rating (0 to 100 scale)) it was 0%. For the same molecule, the pest or weed control at 500 g/ha in experiment [1] (setting [8]) was determined as 30%; in experiment [2] (setting [10]), 90%; in experiment [4] (setting [14]) it was 0%; in experiment [5] (setting [16]), 0%; in experiment [6] (setting [18]), 0%. In addition, the plant injury at 125 g/ha in experiment [3] (postemergence, visual injury vs untreated controls after approx. 10 d, 0 = no effect, 100 = complete control, read-out: Wheat plant response rating (0 to 100 scale)) turned out to be 0%. Further, the plant injury at 500 g/ha in experiment [3] (setting [12]) is 0%.
For `Cc1cc([C@H]2CN(C)C(=O)[C@@H]2C(=O)Nc2cccc(F)c2F)cc(C)c1Br` [Compound 1024], the pest or weed control at 125 g/ha in experiment [1] (setting [19]) came out at 0%; in experiment [2] (setting [21]), 70%; in experiment [4] (setting [24]), 50%; in experiment [5] (setting [26]), 30%; in experiment [6] (setting [27]), 30%. Further, the pest or weed control at 500 g/ha is 20% in experiment [1] (setting [20]); 90% in experiment [2] (setting [22]); 60% in experiment [4] (setting [25]); 30% in experiment [5] (postemergence, visual injury, 0 to 100 scale (0 no effect, 100 complete control), approx. 10 d, read-out: Plant response rating, Ryegrass, Italian); 50% in experiment [6] (postemergence, visual injury, 0 to 100 scale (0 no effect, 100 complete control), approx. 10 d, read-out: Plant response rating, Pigweed). In addition, the plant injury at 125 g/ha in experiment [3] (setting [23]) was determined as 0%. Further, in experiment [3] (postemergence, visual injury, 0 to 100 scale (0 no effect, 100 complete control), approx. 10 d, read-out: Plant response rating, Wheat), the plant injury at 500 g/ha was 30%.
In the case of `COc1c(F)ccc([C@H]2CN(C)C(=O)[C@@H]2C(=O)Nc2ccccc2F)c1Cl` [Compound 892], the pest or weed control at 125 g/ha in experiment [1] (postemergence, visual injury rating after approximately 10 d, read-out: Blackgrass plant response rating (0 to 100 scale, 0 no effect, 100 complete control)) is 0%; in experiment [2] (postemergence, visual injury rating after approximately 10 d, read-out: Foxtail, Giant plant response rating (0 to 100 scale, 0 no effect, 100 complete control)), 90%; in experiment [4] (postemergence, visual injury rating after approximately 10 d, read-out: Kochia plant response rating (0 to 100 scale, 0 no effect, 100 complete control)), 40%; in experiment [5] (postemergence, visual injury rating after approximately 10 d, read-out: Ryegrass, Italian plant response rating (0 to 100 scale, 0 no effect, 100 complete control)) it was 60%; in experiment [6] (postemergence, visual injury rating after approximately 10 d, read-out: Pigweed plant response rating (0 to 100 scale, 0 no effect, 100 complete control)), 0%. Also, in experiment [3] (postemergence, visual injury rating after approximately 10 d, read-out: Wheat plant response rating (0 to 100 scale, 0 no effect, 100 complete control)), the plant injury at 125 g/ha is 0%.
In the case of `CSc1ccccc1NC(=O)[C@H]1C(=O)NC[C@@H]1c1cc(F)cc(Cl)c1` [Compound 977], the pest or weed control at 125 g/ha in experiment [1] (setting [19]) turned out to be 0%; in experiment [2] (setting [21]) it was 90%; in experiment [4] (setting [24]), 70%; in experiment [5] (setting [26]), 0%; in experiment [6] (setting [27]), 30%. Moreover, the plant injury at 125 g/ha in experiment [3] (setting [23]) worked out at 0%.
Take `O=C1NC[C@H](c2ccc3c(c2)CCC3)[C@H]1C(=O)Nc1cccc(F)c1F` [Compound 1046]: the pest or weed control at 125 g/ha in experiment [1] (setting [7]) is 30%; in experiment [2] (setting [9]) it was 60%; in experiment [4] (setting [13]), 0%; in experiment [5] (setting [15]), 40%; in experiment [6] (setting [17]) it was 0%. For the same molecule, the pest or weed control at 500 g/ha in experiment [1] (setting [20]) turned out to be 50%; in experiment [2] (setting [22]) it was 90%; in experiment [4] (setting [25]), 0%. Besides, the plant injury at 125 g/ha in experiment [3] (setting [11]) was found to be 20%.
Consider `CN1C[C@H](c2ccc3c(c2)OCO3)[C@@H](C(=O)Nc2cccc(F)c2F)C1=O` [Compound 1126], for which the pest or weed control at 125 g/ha in experiment [1] (setting [7]) came to 20%; in experiment [2] (setting [9]) it was 80%; in experiment [4] (setting [13]) it was 50%; in experiment [5] (setting [15]), 30%; in experiment [6] (setting [17]), 0%. In addition, the pest or weed control at 500 g/ha in experiment [1] (setting [8]) turned out to be 40%; in experiment [2] (setting [10]), 90%; in experiment [4] (setting [14]) it was 70%; in experiment [5] (setting [16]), 50%; in experiment [6] (setting [18]), 30%. The plant injury at 125 g/ha in experiment [3] (setting [11]) stood at 50%. In experiment [3] (setting [12]), the plant injury at 500 g/ha amounted to 70%.
With `Cc1cc([C@H]2CN(C)C(=O)[C@@H]2C(=O)Nc2ccccc2S(C)(=O)=O)ccc1Br` [Compound 1102], the pest or weed control at 125 g/ha worked out at 20% in experiment [1] (setting [7]); 80% in experiment [2] (setting [9]); 0% in experiment [4] (setting [13]); 0% in experiment [5] (setting [15]); 0% in experiment [6] (setting [17]). Moreover, the pest or weed control at 500 g/ha in experiment [1] (setting [8]) came to 50%; in experiment [2] (setting [10]) it was 90%; in experiment [4] (setting [14]) it was 0%; in experiment [5] (setting [16]), 30%; in experiment [6] (setting [18]), 0%. Further, in experiment [3] (setting [11]), the plant injury at 125 g/ha came out at 20%. In addition, the plant injury at 500 g/ha in experiment [3] (setting [12]) was 50%.
